Test results taken from the NIST ThermoML archive (doi:10.1021/je034078h).
Numbers after ± are expanded uncertainties.

Test: xn = mol fraction of the nth substance listed
Conditions: 101.3 kPa, Liquid; for viscosity: Capillary tube (Ostwald / Ubbelohde) method; for electrical conductivity: Shanghai Precision & Scientific Instrument Co., LTD (DDS-307)

Row | Structure (SMILES) | viscosity (288.15 K, x2 = 0.2) | viscosity (288.15 K, x2 = 0.48) | electrical conductivity (288.15 K, x2 = 0.2) | electrical conductivity (288.15 K, x2 = 0.48) | viscosity (293.15 K, x2 = 0.2) | viscosity (293.15 K, x2 = 0.48) | electrical conductivity (293.15 K, x2 = 0.2) | electrical conductivity (293.15 K, x2 = 0.48) | viscosity (298.15 K, x2 = 0.2) | viscosity (298.15 K, x2 = 0.48) | electrical conductivity (298.15 K, x2 = 0.2) | electrical conductivity (298.15 K, x2 = 0.48) | viscosity (303.15 K, x2 = 0.2) | viscosity (303.15 K, x2 = 0.48) | electrical conductivity (303.15 K, x2 = 0.2) | electrical conductivity (303.15 K, x2 = 0.48) | viscosity (308.15 K, x2 = 0.2) | viscosity (308.15 K, x2 = 0.48) | electrical conductivity (308.15 K, x2 = 0.2) | electrical conductivity (308.15 K, x2 = 0.48)
1 | CCCCn1cc[n+](C)c1.F[P-](F)(F)(F)(F)F [1-butyl-3-methylimidazolium hexafluorophosphate] + CC(C)=O | 165 ± 6.9 mPa·s | 25.1 ± 0.9 mPa·s | 0.00298 ± 0.00018 S/m | 0.00925 ± 0.00056 S/m | 127 ± 5.1 mPa·s | 21.2 ± 0.7 mPa·s | 0.00342 ± 0.00021 S/m | 0.00965 ± 0.00058 S/m | 100.2 ± 3.9 mPa·s | 18.2 ± 0.6 mPa·s | 0.00375 ± 0.00023 S/m | 0.0102 ± 0.00061 S/m | 79.8 ± 3 mPa·s | 16 ± 0.5 mPa·s | 0.00429 ± 0.00026 S/m | 0.0106 ± 0.00064 S/m | 64.1 ± 2.4 mPa·s | 13.8 ± 0.5 mPa·s | 0.00467 ± 0.00028 S/m | 0.011 ± 0.00066 S/m
2 | CCCCn1cc[n+](C)c1.F[P-](F)(F)(F)(F)F [1-butyl-3-methylimidazolium hexafluorophosphate] + CCO | 200.6 ± 8.7 mPa·s | 48 ± 1.7 mPa·s | 0.00302 ± 0.00018 S/m | 0.0068 ± 0.00041 S/m | 148.1 ± 6.2 mPa·s | 37.7 ± 1.3 mPa·s | 0.00336 ± 0.0002 S/m | 0.00733 ± 0.00044 S/m | 113.7 ± 4.5 mPa·s | 30.1 ± 1 mPa·s | 0.0038 ± 0.00023 S/m | 0.00798 ± 0.00048 S/m | 88.4 ± 3.4 mPa·s | 24.8 ± 0.8 mPa·s | 0.0043 ± 0.00026 S/m | 0.00863 ± 0.00052 S/m | 71.5 ± 2.7 mPa·s | 21 ± 0.7 mPa·s | 0.00475 ± 0.00029 S/m | 0.00933 ± 0.00056 S/m
3 | CCCCn1cc[n+](C)c1.F[P-](F)(F)(F)(F)F [1-butyl-3-methylimidazolium hexafluorophosphate] + O |  |  |  |  | 166.4 ± 9.4 mPa·s |  | 0.0033 ± 0.0002 S/m |  | 128.7 ± 5.2 mPa·s |  | 0.00372 ± 0.00022 S/m |  | 99.2 ± 3.9 mPa·s |  | 0.00429 ± 0.00026 S/m |  | 78.2 ± 3.4 mPa·s |  | 0.00478 ± 0.00029 S/m | 
